Reference: article PMC6382696, “Drug Repurposing: The Anthelmintics Niclosamide and Nitazoxanide Are Potent TMEM16A Antagonists That Fully Bronchodilate Airways” (Frontiers in Pharmacology, 2019)
Values joined by “and” are separate entries in the source; they are usually repeats but may differ in a detail not shown here. Equal values may be shown once.

Each compound was assayed on mouse tracheal rings (assay: Wire myograph bronchodilation of carbachol pre-contracted mouse tracheal rings). Conditions: EC75 carbachol, 316 nM.
Procedure: The trachea from C57 BL/6 mice was dissected and collected in PBS with Mg^2+ and Ca^2+. After further trimming, two 2 mm sections (rings) per trachea were then placed in DMEM media containing PSG/HEPES/AA/NaPyr for 1 h and used immediately or maintained overnight at 37°C in a humidified incubator with 5% CO2. Rings were then mounted into chambers of DMT wire myograph containing L-shaped mounting pins with 2–3 mN of force applied to secure rings on the pins and the rings were allowed to equilibrate for 25–30 min in a physiological saline buffer (PSS, 130 mM NaCl, 4.7 mM KCl, 1.2 mM MgS04, 14.9 mM NaHCO3, 1.2 mM KH2PO4, 0.026 mM EDTA, 1.6 mM CaCl2, 5.5 mM Dextrose). Throughout the experiment, rings were maintained at physiological temperature and gas conditions by heating buffer reservoir and chamber to 37°C and bubbling a 95% O2, 5% CO2 gas mixture into chamber.
After equilibration, a standard tissue “Wake-Up” procedure was applied by altering tension and then treatment with elevated potassium as follows: 3 mN tension was applied for 5–10 min, then another 2–3 mN tension to total of 5.5 mN and then to 7–8 mN for another 5 min; the tissue pre-tension was then set to 5 mN and allowed to equilibrate for 5–10 min followed by the removal of the PSS buffer and addition of KPSS (60 mM KCl, 74.7 mM NaCl in PSS solution), with force changes monitored until they reached a plateau. The tissue was then washed four times with PSS over 5 min and the KPSS treatment and washes repeated; the tissue was then allowed to sit in PSS for 10 min and the tension was set to 5 mN.
The tissue was then washed three times and then three times more with PSS for 5 min until tension returned to baseline.
Only tissue that passed the qualification tests above advanced to studies on test article compounds. […] For standard ascending dose-response studies on TMEM16A antagonists, an EC75 or EC95 concentration of CCh was used to pre-contract tracheal rings.

Row | Compound | time to steady-state relaxation of mouse tracheal rings
1 | COc1cc([N+](=O)[O-])ccc1NC(=O)c1cc(Cl)c2ccccc2c1O [Cpd 4] | 25 to 45 min

Same assay, conditions: EC75 carbachol, 1 μM

Row | Compound | time to steady-state relaxation of mouse tracheal rings
2 | CCc1oc2ccccc2c1C(=O)c1cc(Br)c(O)c(Br)c1 [Benzbromarone] | 40 to 60 min
3 | O=C(Nc1ccc([N+](=O)[O-])cc1Cl)c1cc(Cl)ccc1O [Niclosamide] | 17 to 35 min

Same assay, conditions: Mus musculus, carbachol pre-contracted; values marked § (footnote not given); read-out: Bronchodilation of Mouse Tracheal Rings (EC50)

Row | Compound | EC50
4 | O=C(Nc1ccc([N+](=O)[O-])cc1)c1cc(Cl)ccc1O [Cpd 2] | 585 nM
5 | O=C(Nc1ccc([N+](=O)[O-])cc1)c1cc(Cl)c2ccccc2c1O [Cpd 3] | 606 ± 3 nM
6 | O=C(Nc1ncc([N+](=O)[O-])s1)c1cccs1 [NTTP] | 7610 nM

Same assay, conditions: Mus musculus, carbachol pre-contracted; values marked † (footnote not given); read-out: Bronchodilation of Mouse Tracheal Rings (EC50)

Row | Compound | EC50
7 | N#Cc1c(C(F)(F)F)cc(O)n2c1nc1ccccc12 [1PBC] | 1770 nM
8 | CCc1oc2ccccc2c1C(=O)c1cc(Br)c(O)c(Br)c1 [Benzbromarone] | 1280 ± 211 nM
9 | CC(C)(C)C1CCc2c(sc(NC(=O)c3ccco3)c2C(=O)O)C1 (stereo not drawn) [CaCCinh-A01] | 13500 nM
10 | O=C(Nc1ccc([N+](=O)[O-])cc1)c1cc(Cl)ccc1O [Cpd 2] | 483 nM
11 | COc1cc([N+](=O)[O-])ccc1NC(=O)c1cc(Cl)c2ccccc2c1O [Cpd 4] | 467 ± 167 nM
12 | O=C(Nc1ccc(Cl)cc1)c1cc(Cl)ccc1O [Cpd 5] | 1120 nM
13 | Oc1ccc(Cl)cc1Cc1cc(Cl)ccc1O [Dichlorophen] | 2010 nM
14 | COc1cc(Nc2ccc([N+](=O)[O-])cc2C(=O)O)cc2ccccc12 [MONNA] | 3020 nM
15 | O=C(Nc1ccc([N+](=O)[O-])cc1Cl)c1cc(Cl)ccc1O [Niclosamide] | 379 ± 82 nM
16 | O=C(O)c1cccnc1Nc1cccc(C(F)(F)F)c1 [Niflumic Acid] | 51200 nM
17 | CCc1c(C)nc(SCC(=O)Nc2nc(-c3ccc(OC)cc3)cs2)[nH]c1=O [T16Ainh-A01] | > 50000 nM
18 | O=C(Nc1ncc([N+](=O)[O-])s1)c1ccccc1O [Tizoxanide] | 3900 nM

Same assay, conditions: Mus musculus, pre-contracted with EC75 carbachol, average; read-out: EC50 relaxation of mouse tracheal rings

Row | Compound | EC50
19 | COc1cc([N+](=O)[O-])ccc1NC(=O)c1cc(Cl)c2ccccc2c1O [Cpd 4] | ~332 nM
20 | O=C(Nc1ccc([N+](=O)[O-])cc1Cl)c1cc(Cl)ccc1O [Niclosamide] | 365 nM

Same assay, conditions: Mus musculus, pre-contracted with EC75 carbachol; read-out: EC50 relaxation of mouse tracheal rings

Row | Compound | EC50
21 | CCc1oc2ccccc2c1C(=O)c1cc(Br)c(O)c(Br)c1 [Benzbromarone] | 1280 nM

Same assay, conditions: bronchodilating mouse airways, summary

Row | Compound | onset of action
22 | CCc1oc2ccccc2c1C(=O)c1cc(Br)c(O)c(Br)c1 [Benzbromarone] | 17 to 60 min
23 | COc1cc([N+](=O)[O-])ccc1NC(=O)c1cc(Cl)c2ccccc2c1O [Cpd 4] | 17 to 60 min
24 | O=C(Nc1ccc([N+](=O)[O-])cc1Cl)c1cc(Cl)ccc1O [Niclosamide] | 17 to 60 min

Each compound was assayed against T1, hTMEM16A (abc) (Homo sapiens, UniProt Q5XXA6, DEL476-501) (assay: medchem TMEM16A halide-sensitive YFP assay, 22-point dose-response). Conditions: TMEM16A eYFP Assay IC50, supplement; iodide as permeant anion, maximum concentration 55.6.
T1 sequence (Q5XXA6 with tags, fused parts or gaps isoform Q5XXA6-5 DEL539-564): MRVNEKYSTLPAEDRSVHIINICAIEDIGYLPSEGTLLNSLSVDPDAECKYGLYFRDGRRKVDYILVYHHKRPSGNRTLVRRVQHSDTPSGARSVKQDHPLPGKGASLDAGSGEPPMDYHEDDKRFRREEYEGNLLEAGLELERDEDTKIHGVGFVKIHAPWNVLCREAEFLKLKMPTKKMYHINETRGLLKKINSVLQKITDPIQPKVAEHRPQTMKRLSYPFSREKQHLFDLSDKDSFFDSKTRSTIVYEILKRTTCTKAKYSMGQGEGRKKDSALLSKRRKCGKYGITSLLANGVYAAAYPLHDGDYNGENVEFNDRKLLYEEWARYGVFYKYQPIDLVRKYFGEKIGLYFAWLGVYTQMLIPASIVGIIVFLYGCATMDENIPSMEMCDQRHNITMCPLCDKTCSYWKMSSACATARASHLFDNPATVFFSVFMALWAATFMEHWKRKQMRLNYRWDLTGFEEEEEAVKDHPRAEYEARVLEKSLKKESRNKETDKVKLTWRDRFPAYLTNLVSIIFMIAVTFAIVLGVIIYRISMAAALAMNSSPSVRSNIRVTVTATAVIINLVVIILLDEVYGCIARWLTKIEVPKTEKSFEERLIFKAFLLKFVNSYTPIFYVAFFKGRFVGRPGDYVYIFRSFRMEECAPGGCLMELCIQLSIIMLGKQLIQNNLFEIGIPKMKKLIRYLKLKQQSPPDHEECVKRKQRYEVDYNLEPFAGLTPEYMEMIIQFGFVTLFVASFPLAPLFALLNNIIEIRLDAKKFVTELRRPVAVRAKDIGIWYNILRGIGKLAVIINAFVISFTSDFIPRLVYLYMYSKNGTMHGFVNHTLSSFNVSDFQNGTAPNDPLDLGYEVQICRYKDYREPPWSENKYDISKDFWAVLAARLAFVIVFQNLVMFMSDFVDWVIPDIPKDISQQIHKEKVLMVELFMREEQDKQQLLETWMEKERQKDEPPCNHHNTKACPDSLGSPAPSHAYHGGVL
Assay type: cell-based
Parameters: expressed in transfected cells
Outline: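 HEK293T stably expressing eYFP (H149Q, I153L) and hTMEM16A(abc), preincubated 30 min at room temperature with compound in HBSS/10 mM HEPES pH 7.4.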

Row | Compound | IC50
25 | CCc1oc2ccccc2c1C(=O)c1cc(Br)c(O)c(Br)c1 [Benzbromarone] | 1510 ± 504 nM

Same assay, conditions: average, 22-point dose-response, iodide as permeant anion; read-out: TMEM16A eYFP Assay (IC50)

Row | Compound | IC50
26 | N#Cc1c(C(F)(F)F)cc(O)n2c1nc1ccccc12 [1PBC] | 1520 ± 1360 nM
27 | CCc1oc2ccccc2c1C(=O)c1cc(Br)c(O)c(Br)c1 [Benzbromarone] | 1510 ± 504 nM
28 | O=C(Nc1ccc([N+](=O)[O-])cc1)c1cc(Cl)c2ccccc2c1O [Cpd 3] | 184 ± 89 nM
29 | COc1cc([N+](=O)[O-])ccc1NC(=O)c1cc(Cl)c2ccccc2c1O [Cpd 4] | 901 ± 524 nM
30 | O=C(Nc1ccc(Cl)cc1)c1cc(Cl)ccc1O [Cpd 5] | 370 ± 131 nM
31 | Oc1ccc(Cl)cc1Cc1cc(Cl)ccc1O [Dichlorophen] | 4370 ± 1210 nM
32 | COc1cc(Nc2ccc([N+](=O)[O-])cc2C(=O)O)cc2ccccc12 [MONNA] | 6300 ± 1470 nM
33 | O=C(Nc1ncc([N+](=O)[O-])s1)c1cccs1 [NTTP] | 2480 ± 1240 nM
34 | O=C(Nc1ccc([N+](=O)[O-])cc1Cl)c1cc(Cl)ccc1O [Niclosamide] | 130 nM and 132 nM
35 | O=C(O)c1cccnc1Nc1cccc(C(F)(F)F)c1 [Niflumic Acid] | 26600 ± 11800 nM
36 | CCc1c(C)nc(SCC(=O)Nc2nc(-c3ccc(OC)cc3)cs2)[nH]c1=O [T16Ainh-A01] | > 50000 nM
37 | O=C(Nc1ncc([N+](=O)[O-])s1)c1ccccc1O [Tizoxanide] | 398 nM

Same assay, conditions: iodide as permeant anion

Row | Compound | maximal percent inhibition in the TMEM16A/eYFP assay
38 | O=C(Nc1ccc([N+](=O)[O-])cc1Cl)c1cc(Cl)ccc1O [Niclosamide] | 62.4 ± 12.0%

Same assay, conditions: supplement; iodide as permeant anion, maximum concentration 55.6; read-out: TMEM16A eYFP Assay IC50

Row | Compound | IC50
39 | N#Cc1c(C(F)(F)F)cc(O)n2c1nc1ccccc12 [1PBC] | 1520 ± 1360 nM
40 | COc1cc([N+](=O)[O-])ccc1NC(=O)c1cc(Cl)c2ccccc2c1O [Cpd 4] | 954 ± 648 nM
41 | O=C(Nc1ccc(Cl)cc1)c1cc(Cl)ccc1O [Cpd 5] | 370 ± 131 nM
42 | Oc1ccc(Cl)cc1Cc1cc(Cl)ccc1O [Dichlorophen] | 4360 ± 1210 nM
43 | COc1cc(Nc2ccc([N+](=O)[O-])cc2C(=O)O)cc2ccccc12 [MONNA] | 6290 ± 1470 nM
44 | O=C(Nc1ccc([N+](=O)[O-])cc1Cl)c1cc(Cl)ccc1O [Niclosamide] | 132 ± 67.1 nM
45 | CCc1c(C)nc(SCC(=O)Nc2nc(-c3ccc(OC)cc3)cs2)[nH]c1=O [T16Ainh-A01] | > 55600 nM

Same assay, conditions: up to 55.6 μM

Row | Compound | scope of block of ionomycin-induced iodide eYFP quenching
46 | N#Cc1c(C(F)(F)F)cc(O)n2c1nc1ccccc12 [1PBC] | only partial inhibition
47 | CCc1oc2ccccc2c1C(=O)c1cc(Br)c(O)c(Br)c1 [Benzbromarone] | fully inhibited
48 | O=C(Nc1ccc([N+](=O)[O-])cc1)c1cc(Cl)ccc1O [Cpd 2] | only partially inhibited
49 | O=C(Nc1ccc([N+](=O)[O-])cc1)c1cc(Cl)c2ccccc2c1O [Cpd 3] | only partially inhibited
50 | COc1cc([N+](=O)[O-])ccc1NC(=O)c1cc(Cl)c2ccccc2c1O [Cpd 4] | only partial inhibition
51 | O=C(Nc1ccc(Cl)cc1)c1cc(Cl)ccc1O [Cpd 5] | only partially inhibited
52 | Oc1ccc(Cl)cc1Cc1cc(Cl)ccc1O [Dichlorophen] | fully inhibited
53 | COc1cc(Nc2ccc([N+](=O)[O-])cc2C(=O)O)cc2ccccc12 [MONNA] | fully inhibited
54 | O=C(Nc1ccc([N+](=O)[O-])cc1Cl)c1cc(Cl)ccc1O [Niclosamide] | only partial inhibition
55 | CCc1c(C)nc(SCC(=O)Nc2nc(-c3ccc(OC)cc3)cs2)[nH]c1=O [T16Ainh-A01] | inactive
56 | O=C(Nc1ncc([N+](=O)[O-])s1)c1ccccc1O [Tizoxanide] | partially inhibiting

Same assay, conditions: versus eight benchmark antagonists

Row | Compound | times more potent than other antagonists in the halide-sensitive YFP assay
57 | O=C(Nc1ccc([N+](=O)[O-])cc1Cl)c1cc(Cl)ccc1O [Niclosamide] | 10–200 times
